Ki, EC50 and Seiz. data for 20 compounds are collected here from US7683168B2, “Compositions of novel opioid compounds and method of use thereof” (priority 2005, dated 2010).

One data set deals with T1, human mu opioid receptor (Homo sapiens, UniProt P35372).
T1 construct: purchased Perkin Elmer, Boston, Mass; 6110535; host or cells: CHO cells
Description: radioligand binding, human mu opioid receptor, CHO cell membranes. Particulars: species not given, read-out: μ.

The next data set deals with mouse vas deferens. The data set is described as follows: electrically stimulated mouse vas deferens (MVD) ED50. The format is cell-based. Particulars: ED50, inhibition of electrically induced contractions.
Data set [1] concerns seizure-like convulsions in mice. The data set is described as follows: mouse seizure-like convulsions. The data set is classed as in vivo. How it is done: Mouse Seizure-Like Convulsions and antinociception: The central (CNS) effects of the compound were tested with central delta receptor mediated seizure-like convulsions and central mu opioid receptor mediated antinociceptive effects in mice. Male CD-1 mice (Charles River, Raleigh, N.C.) weighing 20-25 g were used to determine the seizure-like convulsion and antinociception activities for compounds.
They were then observed for seizure-like convulsions for one hour following the treatment. A seizure-like event was recorded if a mouse had uncontrollable clonic (or tonic/clonic) muscle movements that encompassed its entire body, usually followed by a brief cataleptic period. Catalepsy was determined by placing the animal's front paws on a horizontal bar held 2-3 inches from the cage floor. Cataleptic animals made no attempt to remove their paws.

In another data set the target is T2, human delta receptor (Homo sapiens, UniProt P41143).
T2 construct: purchased Perkin Elmer, Boston, Mass; 6110549; host or cells: HEK-293 cells
T2 sequence (P41143 whole entry): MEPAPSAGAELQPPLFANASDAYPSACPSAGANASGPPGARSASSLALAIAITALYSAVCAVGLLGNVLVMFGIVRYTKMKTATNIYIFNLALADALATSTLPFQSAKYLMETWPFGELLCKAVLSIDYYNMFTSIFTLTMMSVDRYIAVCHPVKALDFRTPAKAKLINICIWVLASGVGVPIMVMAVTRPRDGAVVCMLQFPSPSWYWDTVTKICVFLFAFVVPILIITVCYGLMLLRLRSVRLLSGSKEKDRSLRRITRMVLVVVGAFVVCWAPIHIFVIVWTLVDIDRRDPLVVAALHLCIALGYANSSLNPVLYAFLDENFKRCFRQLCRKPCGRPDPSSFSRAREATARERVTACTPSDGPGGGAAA
The data set is described as follows: radioligand binding, human delta receptor, HEK-293 cell membranes. The note with it: cell not marked (rat), species not given, read-out: δ.

T1 sequence (P35372 whole entry): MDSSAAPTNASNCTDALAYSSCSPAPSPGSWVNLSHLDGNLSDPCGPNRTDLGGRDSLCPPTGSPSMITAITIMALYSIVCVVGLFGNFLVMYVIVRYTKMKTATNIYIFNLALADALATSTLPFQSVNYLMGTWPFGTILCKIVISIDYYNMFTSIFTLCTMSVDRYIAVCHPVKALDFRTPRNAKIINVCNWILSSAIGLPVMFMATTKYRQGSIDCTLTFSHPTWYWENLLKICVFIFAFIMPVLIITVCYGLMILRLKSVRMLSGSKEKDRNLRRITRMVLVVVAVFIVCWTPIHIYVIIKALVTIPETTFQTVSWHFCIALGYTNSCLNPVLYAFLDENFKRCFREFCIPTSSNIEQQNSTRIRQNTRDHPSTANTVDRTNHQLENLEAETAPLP

Usually EC50 stands for the concentration that produces a half-maximal response. High values mean a less potent agent, low ones a more potent agent. Regarding `C=CCN1C[C@H](C)N([C@@H](c2cccc(O)c2)c2cccc(C(=O)N3CCN(CCC(=O)O)CC3)c2)C[C@H]1C` [Example 73, 3-(4-{3-[(R)-((2S,5R)-4-Allyl-2,5-dimethyl-piperazin-1-yl)-(3-hydroxy-phenyl)-methyl]-benzoyl}-piperazin-1-yl)-propionic acid], the Ki on human mu opioid receptor came to 17.1 nM; on human delta receptor, 2.6 nM. In the data set on mouse vas deferens, the EC50 was 2.28 nM. The compound also showed a Seiz. in data set [1] (10 mg/kg IV) of 0% 10 mg/kg IV.

On to `C=CCN1C[C@H](C)N([C@@H](c2cccc(O)c2)c2cccc(C(=O)N3CCC(NCCCC(=O)O)CC3)c2)C[C@H]1C` [Example 142, 4-(1-{3-[(R)-((2S,5R)-4-Allyl-2,5-dimethyl-piperazin-1-yl)-(3-hydroxy-phenyl)-methyl]-benzoyl}-piperidin-4-ylamino)-butyric acid], for which the Ki turned out to be 8.7 nM at human mu opioid receptor and 1.7 nM on human delta receptor. A half-maximal effect with mouse vas deferens (EC50) was put at 12.5 nM. In addition, the Seiz. in data set [1] (10 mg/kg IV) turned out to be 0% 10 mg/kg IV.

As for `C=CCN1C[C@H](C)N([C@@H](c2cccc(O)c2)c2cccc(C(=O)N3CCNCC3)c2)C[C@H]1C` [Example 58, {3-[(R)-((2S,5R)-4-Allyl-2,5-dimethyl-piperazin-1-yl)-(3-hydroxy-phenyl)-methyl]-phenyl}-piperazin-1-yl-methanone], the Ki was found to be 1.1 nM at human mu opioid receptor and 5.1 nM at human delta receptor. It took 12.1 nM to reach a half-maximal effect with mouse vas deferens (EC50). For the same compound, in data set [1] (10 mg/kg IV), the Seiz. is 0% 10 mg/kg IV.

In the case of `C=CCN1C[C@H](C)N([C@@H](c2cccc(O)c2)c2cccc(C(=O)N3CCC[C@H]3C(=O)OC)c2)C[C@H]1C` [Example 143, 1-{3-[(R)-((2S,5R)-4-Allyl-2,5-dimethyl-piperazin-1-yl)-(3-hydroxy-phenyl)-methyl]-benzoyl}-pyrrolidine-2-carboxylic acid (S)-methyl ester], the Ki is 0.5 nM on human mu opioid receptor and 1.5 nM at human delta receptor. Moreover, it took 1.79 nM to reach a half-maximal effect in the data set with mouse vas deferens (EC50). Moreover, in data set [1] (10 mg/kg IV), the Seiz. was 10% 10 mg/kg IV.

`C=CCN1C[C@H](C)N([C@@H](c2cccc(O)c2)c2cccc(C(=O)N3CCN(CCCC(=O)OCC)CC3)c2)C[C@H]1C` [Example 74, (4-{3-[(R)-((2S,5R)-4-Allyl-2,5-dimethyl-piperazin-1-yl)-(3-hydroxy-phenyl)-methyl]-benzoyl}-piperazin-1-yl)-butyric acid ethyl ester]: the Ki turned out to be 1.95 nM at human mu opioid receptor and 123 nM at human delta receptor. Moreover, the EC50 in the data set on mouse vas deferens was determined as 23.3 nM. The compound further had a Seiz. in data set [1] (10 mg/kg IV) of 10% 10 mg/kg IV.

Take `C=CCN1C[C@H](C)N([C@@H](c2cccc(O)c2)c2cccc(C(=O)N3CCN(CCCCC(=O)OCC)CC3)c2)C[C@H]1C` [Example 83, 5-(4-{3-[(R)-((2S,5R)-4-Allyl-2,5-dimethyl-piperazin-1-yl)-(3-hydroxy-phenyl)-methyl]-benzoyl}-piperazin-1-yl)-pentanoic acid ethyl ester]: the Ki turned out to be 8.9 nM at human mu opioid receptor and 10.7 nM on human delta receptor. This compound returned an EC50 in the data set on mouse vas deferens of 11.8 nM. In data set [1] (10 mg/kg IV), this compound showed a Seiz. of 30% 10 mg/kg IV.

Regarding `C=CCN1C[C@H](C)N([C@@H](c2cccc(O)c2)c2cccc(C(=O)N3CCN(Cc4ccc(C(=O)OC)cc4)CC3)c2)C[C@H]1C` [Example 91, 4-(4-{3-[(R)-((2S,5R)-4-Allyl-2,5-dimethyl-piperazin-1-yl)-(3-hydroxy-phenyl)-methyl]-benzoyl}-piperazin-1-ylmethyl)-benzoic acid methyl ester], the Ki amounted to 6.5 nM on human mu opioid receptor and 2.7 nM on human delta receptor. In the data set on mouse vas deferens, the EC50 amounted to 23.1 nM. The compound also gave a Seiz. in data set [1] (10 mg/kg IV) of 70% 10 mg/kg IV.

For `C[C@@H]1CN(C(c2cccc(O)c2)c2cccc(C(=O)N3CCCN(CCCC(=O)O)CC3)c2)[C@@H](C)CN1Cc1cccc(F)c1` (some centres unmarked), the results for the Ki on human mu opioid receptor and on human delta receptor were 0.27 nM and 94 nM, respectively. In the data set on mouse vas deferens, this compound yielded an EC50 of 6.37 nM. Besides, the Seiz. in data set [1] (10 mg/kg IV) is listed as 0% 10 mg/kg IV.

Consider `C=CCN1C[C@H](C)N([C@@H](c2cccc(O)c2)c2cccc(C(=O)N3CCN(CC(=O)O)CC3)c2)C[C@H]1C` [Example 64, (4-{3-[(R)-((2S,5R)-4-Allyl-2,5-dimethyl-piperazin-1-yl)-(3-hydroxy-phenyl)-methyl]-benzoyl}-piperazin-1-yl)-acetic acid], for which the Ki was found to be 9 nM on human mu opioid receptor and 0.79 nM on human delta receptor. Also, the EC50 in the data set with mouse vas deferens turned out to be 5.18 nM. In data set [1] (10 mg/kg IV), this compound registered a Seiz. of 30% 10 mg/kg IV.

For `C[C@@H]1CN(C(c2cccc(O)c2)c2cccc(C(=O)N3CCCN(CCCCC(=O)O)CC3)c2)[C@@H](C)CN1Cc1ccccc1` (some centres unmarked), the Ki is 23.5 nM on human mu opioid receptor and 20.4 nM at human delta receptor. Further, in the data set on mouse vas deferens, the EC50 stood at 3.28 nM. In data set [1] (10 mg/kg IV), the Seiz. is on record as 0% 10 mg/kg IV.

On to `C=CCN1C[C@H](C)N([C@@H](c2cccc(O)c2)c2cccc(C(=O)N3CCC(=CC(=O)O)CC3)c2)C[C@H]1C` [Example 138, (1-{3-[(R)-((2S,5R)-4-allyl-2,5-dimethyl-1-piperazinyl)(3-hydroxyphenyl)methyl]-benzoyl}-4-piperidinylidene)acetic acid], for which the Ki stood at 7.4 nM at human mu opioid receptor and 0.63 nM on human delta receptor. This compound showed an EC50 with mouse vas deferens of 1.35 nM. Besides, in data set [1] (10 mg/kg IV), the Seiz. worked out at 0% 10 mg/kg IV.

As for `C[C@@H]1CN([C@@H](c2cccc(O)c2)c2cccc(C(=O)N3CCN(CCCCC(=O)O)CC3)c2)[C@@H](C)CN1Cc1cccc(F)c1` [Example 88, 5-(4-{3-[(R)-((2S,5R)-4-(3-Fluorobenzyl)-2,5-dimethyl-piperazin-1-yl)-(3-hydroxy-phenyl)-methyl]-benzoyl}-piperazin-1-yl)-pentanoic acid], the results for the Ki on human mu opioid receptor and on human delta receptor were 211 nM and 16.9 nM, respectively. In addition, in the data set with mouse vas deferens, the EC50 was 6.66 nM. The Seiz. in data set [1] (10 mg/kg IV) was found to be 0% 10 mg/kg IV.

In the case of `C=CCN1C[C@H](C)N(C(c2cccc(O)c2)c2cccc(C(=O)N3CCCN(CCCCCC(=O)O)CC3)c2)C[C@H]1C` (some centres unmarked), the Ki at human mu opioid receptor was found to be 89.9 nM; on human delta receptor it was 5.3 nM. This compound displayed an EC50 in the data set with mouse vas deferens of 19 nM. In data set [1] (10 mg/kg IV), this compound registered a Seiz. of 0% 10 mg/kg IV.

`C=CCN1C[C@H](C)N([C@@H](c2cccc(O)c2)c2cccc(C(=O)N3CCN(CCC(=O)OCC)CC3)c2)C[C@H]1C` [Example 72, 3-(4-{3-[(R)-((2S,5R)-4-Allyl-2,5-dimethyl-piperazin-1-yl)-(3-hydroxy-phenyl)-methyl]-benzoyl}-piperazin-1-yl)-propionic acid ethyl ester]: the Ki at human mu opioid receptor amounted to 2.4 nM; on human delta receptor, 0.61 nM. Moreover, the EC50 in the data set on mouse vas deferens was determined as 8.03 nM. Moreover, the Seiz. in data set [1] (10 mg/kg IV) is given as 20% 10 mg/kg IV.

For `C=CCN1C[C@H](C)N([C@@H](c2cccc(O)c2)c2cccc(C(=O)N3CCN(CCCCCC(=O)O)CC3)c2)C[C@H]1C` [Example 94, 6-(4-{3-[(R)-((2S,5R)-4-Allyl-2,5-dimethyl-piperazin-1-yl)-(3-hydroxy-phenyl)-methyl]-benzoyl}-piperazin-1-yl)-hexanoic acid], the Ki worked out at 64.3 nM at human mu opioid receptor and 2.5 nM at human delta receptor. The compound further gave an EC50 with mouse vas deferens of 6.07 nM. In addition, the Seiz. in data set [1] (10 mg/kg IV) is recorded as 0% 10 mg/kg IV.

For the compound `C[C@@H]1CN(C(c2cccc(O)c2)c2cccc(C(=O)N3CCCN(CCCCC(=O)O)CC3)c2)[C@@H](C)CN1Cc1cccc(F)c1` (some centres unmarked), the Ki amounted to 34.8 nM on human mu opioid receptor and 35.4 nM at human delta receptor. The compound also displayed an EC50 in the data set on mouse vas deferens of 14.7 nM. In data set [1] (10 mg/kg IV), the Seiz. was 0% 10 mg/kg IV.

Regarding `C[C@@H]1CN(C(c2cccc(O)c2)c2cccc(C(=O)N3CCCN(CC(=O)O)CC3)c2)[C@@H](C)CN1CC1CC1` (some centres unmarked), the Ki was determined as 33.1 nM on human mu opioid receptor and 6.8 nM at human delta receptor. The compound further registered an EC50 with mouse vas deferens of 65.2 nM. This compound returned a Seiz. in data set [1] (20 mg/kg IV) of 0% 20 mg/kg IV.

`CCOC(=O)CCCCCN1CCN(C(=O)c2cccc([C@H](c3cccc(O)c3)N3C[C@@H](C)N(Cc4ccccc4)C[C@@H]3C)c2)CC1` [Example 96, 6-(4-{3-[(R)-((2S,5R)-4-Benzyl-2,5-dimethyl-piperazin-1-yl)-(3-hydroxy-phenyl)-methyl]-benzoyl}-piperazin-1-yl)-hexanoic acid ethyl ester]: the Ki on human mu opioid receptor amounted to 2 nM; at human delta receptor, 6.9 nM. In addition, in the data set on mouse vas deferens, the EC50 stood at 10.4 nM. The same compound yielded a Seiz. in data set [1] (10 mg/kg IV) of 60% 10 mg/kg IV.

For `C[C@@H]1CN([C@@H](c2cccc(O)c2)c2cccc(C(=O)N3CCN(CCCC(=O)O)CC3)c2)[C@@H](C)CN1Cc1cccc(F)c1` [Example 82, 4-(4-{3-[(R)-((2S,5R)-4-(3-Fluorobenzyl)-2,5-dimethyl-piperazin-1-yl)-(3-hydroxy-phenyl)-methyl]-benzoyl}-piperazin-1-yl)-butyric acid], the Ki at human mu opioid receptor stood at 13.8 nM; at human delta receptor, 31.1 nM. In the data set with mouse vas deferens, this compound showed an EC50 of 2.65 nM. Moreover, in data set [1] (10 mg/kg IV), the Seiz. amounted to 0% 10 mg/kg IV.

For the compound `CCOC(=O)CCCN1CCN(C(=O)c2cccc([C@H](c3cccc(O)c3)N3C[C@@H](C)N(Cc4ccccc4)C[C@@H]3C)c2)CC1` [Example 79, 4-(4-{3-[(R)-((2S,5R)-4-Benzyl-2,5-dimethyl-piperazin-1-yl)-(3-hydroxy-phenyl)-methyl]-benzoyl}-piperazin-1-yl)-butyric acid ethyl ester], the values for the Ki on human mu opioid receptor and at human delta receptor were 1.3 nM and 3.7 nM, respectively. Further, a half-maximal response with mouse vas deferens (EC50) required 3.95 nM. This compound also came in with a Seiz. in data set [1] (10 mg/kg IV) of 80% 10 mg/kg IV.
